Values quoted from earlier work, collected in patent US20040022740A1, “Macrolide formulations for inhalation and methods of treatment of endobronchial infections” (priority 2003, published 2004).

## CC[C@H]1OC(=O)[C@H](C)[C@@H](O[C@H]2C[C@@](C)(OC)[C@@H](O)[C@H](C)O2)[C@H](C)[C@@H](O[C@@H]2O[C@H](C)C[C@H](N(C)C)[C@H]2O)[C@](C)(O)C[C@@H](C)[C@@H]2N[C@@H](COCCOC)O[C@H]([C@H]2C)[C@]1(C)O [dirithromycin]
In humans
  oral bioavailability: 10-14%
In vivo
  elimination into the feces: 62-81%
